The subject of the experiment is human myeloma cell lines (HMCLs). Nature of the experiment: In vitro chemosensitivity (cytotoxicity) assay, CellTiter-Glo luminescent cell viability, panel of 50 HMCLs. The class given is cell-based. The following applies: for IC50: single agent, viability 48 hours post treatment; for AUSC (area under the survival curve), Maximum / AUSC (area under the survival curve), Mean / AUSC (area under the survival curve), Median / AUSC (area under the survival curve), Minimum: trapezoidal rule, 48 hours post treatment. The procedure: Fifty (50) HMCLs were procured from various institutions, established and characterized, and maintained in Human Myeloma Cell Line (HMCL) media with IL-6 (Mitra et al., 2016). Table 1A provides the cytogenetic characteristics of the […] cytotoxicity assays were performed on the HMCLs to create a drug sensitivity profile in response to treatment with increasing concentrations of Bz, Cz, Ix and Opz as single agents and half-maximal inhibitory concentration/IC50 values and area under the survival curve/AUSC were calculated as described in Mitra et al. (2016). Briefly, cells were counted using Countess automated cell counter (Invitrogen) and seeded in 96-well plates at a concentration of 4×10^5 cells per mL. After 24 hours, cells were treated with increasing concentrations of Bz, Cz, Ix and Opz as single agents. […] Percent survival values were normalized to untreated controls and half-maximal inhibitory concentration/IC50 values were determined by calculating the nonlinear regression using sigmoidal dose-response equation (variable slope). Area under the survival curve/AUSC was calculated using trapezoidal rule and log2-transformed for further statistical analysis (Mitra et al., 2016). Caspase3/7 activity were evaluated using Caspase-Glo®3/7 Assay kit (Promega) on Synergy 2 Microplate Reader.

The mark [1] stands for this setting: Homo sapiens, maximum across panel of 50 HMCLs, read-out: IC50, Maximum.
The mark [2] stands for this setting: Homo sapiens, mean across panel of 50 HMCLs, read-out: IC50, Mean.
Setting [3] is: Homo sapiens, median across panel of 50 HMCLs, read-out: IC50, Median.
[4] abbreviates: Homo sapiens, minimum across panel of 50 HMCLs, read-out: IC50, Minimum.
Where [5] appears, read: maximum across panel of 50 HMCLs.
Setting [6] is: median across panel of 50 HMCLs.
Setting [7] is: minimum across panel of 50 HMCLs.

Read-outs that look alike come from different tables or passages of the source.

As to `COC[C@H](NC(=O)c1cnc(C)s1)C(=O)N[C@@H](COC)C(=O)N[C@@H](Cc1ccccc1)C(=O)[C@@]1(C)CO1` [Oprozomib], the IC50 under setting [1] amounted to 0.776 µM, the 50% inhibitory concentration (IC50) under setting [2] was found to be 0.0458 µM, the IC50 under setting [3] turned out to be 0.0237 µM and the concentration for half-maximal inhibition (IC50) under setting [4] amounted to 0.0076 µM. The “AUSC (area under the survival curve), Maximum” value (from here on “AUSC … Maximum”) under setting [5] amounted to 59.917 µM. Where the note is “mean across panel of 50 HMCLs”, the “AUSC (area under the survival curve), Mean” value (“AUSC … Mean” for short) turned out to be 5.017 µM. For the same compound, under setting [6], the “AUSC (area under the survival curve), Median” value (from here on “AUSC … Median”) was 2885.0 nM. Also, the “AUSC (area under the survival curve), Minimum” value (“AUSC … Minimum” below) under setting [7] stood at 1050.0 nM.

Regarding `CC(C)C[C@H](NC(=O)CNC(=O)c1cc(Cl)ccc1Cl)B(O)O` [Ixazomib], the half-maximal inhibitory concentration (IC50) turned out to be 4.76 µM (maximum across panel of 50 HMCLs, read-out: IC50, Maximum); 0.155 µM (mean across panel of 50 HMCLs, read-out: IC50, Mean); 0.0421 µM (median across panel of 50 HMCLs, read-out: IC50, Median); 0.0151 µM (minimum across panel of 50 HMCLs, read-out: IC50, Minimum). Also, the “AUSC … Maximum” value under setting [5] worked out at 46.494 µM. Besides, the “AUSC … Mean” value (mean across panel of 50 HMCLs) was 10.03 µM. For the same compound, under setting [6], the “AUSC … Median” value was found to be 6456.0 nM. Also, under setting [7], the “AUSC … Minimum” value worked out at 1702.0 nM.

With `CC(C)C[C@H](NC(=O)[C@H](Cc1ccccc1)NC(=O)c1cnccn1)B(O)O` [Bortezomib], the half-inhibitory concentration (IC50) was 0.124 µM under setting [1], 0.0171 µM under setting [2], 0.0117 µM under setting [3] and 0.0028 µM under setting [4]. Further, the “AUSC … Maximum” value under setting [5] is 38.974 µM. Moreover, the “AUSC … Mean” value (mean across panel of 50 HMCLs) stood at 2.7001 µM. Besides, the “AUSC … Median” value under setting [6] is 1524.0 nM. Further, the “AUSC … Minimum” value under setting [7] is recorded as 319.6 nM.

On to `CC(C)C[C@H](NC(=O)[C@H](CCc1ccccc1)NC(=O)CN1CCOCC1)C(=O)N[C@@H](Cc1ccccc1)C(=O)N[C@@H](CC(C)C)C(=O)[C@@]1(C)CO1` [Carfilzomib], for which the half-maximal inhibitory concentration (IC50) under setting [1] turned out to be 0.0553 µM, the 50% inhibitory concentration (IC50) under setting [2] amounted to 0.0109 µM, the IC50 under setting [3] worked out at 0.0071 µM and the IC50 under setting [4] came out at 0.0007 µM. In addition, the “AUSC … Maximum” value under setting [5] was determined as 19.097 µM. Besides, under “mean across panel of 50 HMCLs”, the “AUSC … Mean” value stood at 3.5034 µM. The “AUSC … Median” value under setting [6] stood at 1448.5 nM. The “AUSC … Minimum” value under setting [7] is 375.5 nM.

What is called IC50 is the concentration needed to halve the response being measured.

(Values after patent US20170159130A1, “TRANSCRIPTIONAL CLASSIFICATION AND PREDICTION OF DRUG RESPONSE (T-CAP DR)” (priority 2015, published 2017).)
